Test results: patent US12384776B2, “Compounds and uses thereof” (Foghorn Therapeutics Inc., priority 2019, dated 2025)

Target: Nanoluciferase-BRD9 fusion protein (3×FLAG-NLuc-BRD9) in SYO-1 cells (Homo sapiens (Human), UniProt Q9H8M2)
Assay: SYO1 BRD9 NanoLuc degradation assay
Format: cell-based
Protocol: Procedure: A stable SYO-1 cell line expressing 3×FLAG-NLuc-BRD9 was generated. On day 0 cells were seeded in 30 μL media into each well of 384-well cell culture plates. The seeding density was 8000 cells/well. On day 1, cells were treated with 30 nL DMSO or 30 nL of 3-fold serially DMSO-diluted compounds (10 points in duplicates with 1 μM as final top dose). Subsequently plates were incubated for 6 hours in a standard tissue culture incubator and equilibrated at room temperature for 15 minutes. Nanoluciferase activity was measured by adding 15 μL of freshly prepared Nano-Glo Luciferase Assay Reagent (Promega N1130), shaking the plates for 10 minutes and reading the bioluminescence using an EnVision reader.
Results: The Inhibition % was calculated using the following formula: % Inhibition=100×(LumHC−LumSample)/(LumHC−LumLC). DMSO treated cells are employed as High Control (HC) and 1 μM of a known BRD9 degrader standard treated cells are employed as Low Control (LC).

[1] = SYO-1 cells expressing 3×FLAG-NLuc-BRD9, 6 hours incubation, top dose 1 μM

Nanoluciferase-BRD9 fusion protein (3×FLAG-NLuc-BRD9) in SYO-1 cells, sequence (Q9H8M2 whole entry, the tested form may be a part): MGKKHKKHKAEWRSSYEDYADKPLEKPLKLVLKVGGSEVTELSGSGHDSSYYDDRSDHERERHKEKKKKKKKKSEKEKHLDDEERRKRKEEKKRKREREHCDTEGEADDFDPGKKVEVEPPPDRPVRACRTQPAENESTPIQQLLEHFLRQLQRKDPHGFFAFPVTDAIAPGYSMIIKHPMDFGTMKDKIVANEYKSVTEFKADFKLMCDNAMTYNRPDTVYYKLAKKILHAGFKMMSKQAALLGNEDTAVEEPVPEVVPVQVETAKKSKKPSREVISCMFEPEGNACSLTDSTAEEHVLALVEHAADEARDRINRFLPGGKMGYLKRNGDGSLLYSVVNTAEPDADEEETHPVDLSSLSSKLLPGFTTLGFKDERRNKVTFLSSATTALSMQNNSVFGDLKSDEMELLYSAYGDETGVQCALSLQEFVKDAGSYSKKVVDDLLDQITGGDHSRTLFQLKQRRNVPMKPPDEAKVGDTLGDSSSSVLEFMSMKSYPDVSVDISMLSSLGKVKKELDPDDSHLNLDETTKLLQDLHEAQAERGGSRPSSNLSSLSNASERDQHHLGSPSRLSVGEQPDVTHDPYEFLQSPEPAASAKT

Row | SMILES | IC50 [1] [µM] | IC50 (SYO-1 cells, 6 hours, Table 6C) [µM]
1 | CNC(=O)N1CCc2c(-c3cc(OC)c(CN4C[C@@H](C)N(CCC5CCN(c6ccc7c(c6)C(=O)N(C6CCC(=O)NC6=O)C7=O)CC5)[C@@H](C)C4)c(OC)c3)cn(C)c(=O)c2C1 (stereo partly drawn) [Compound D42] | < 0.01 | 
2 | COc1cc(-c2cn(C)c(=O)c3c2CCN(C(=O)NCC2CC4(CCN(CCCOc5ccc6c(c5)C(=O)N(C5CCC(=O)NC5=O)C6=O)CC4)C2)C3)cc(OC)c1CN(C)C (stereo not drawn) [Compound D235] | 0.1 to 1 | 
3 | COc1cc(-c2cn(C)c(=O)c3c2CCN(C(=O)NCCCN2CCC(OC4CCN(c5ccc6c(c5)C(=O)N(C5CCC(=O)NC5=O)C6=O)CC4)CC2)C3)cc(OC)c1CN(C)C (stereo not drawn) [Compound D223] | 0.01 to 0.1 | 
4 | COc1cc(-c2cn(C)c(=O)c3c2CCN(C(=O)NCCCN2CCC(OC4CCN(c5ccc6c(c5)C(=O)N(C5CCC(=O)NC5=O)C6=O)CC4)C2)C3)cc(OC)c1CN(C)C (stereo not drawn) [Compound D225] | 0.01 to 0.1 | 
5 | COc1cc(-c2cn(C)c(=O)c3c2COC3)cc(OC)c1CN1CC(CN2CCC3(CC2)CN(c2ccc4c(c2)C(=O)N(C2CCC(=O)NC2=O)C4)C3)C1 (stereo not drawn) [Compound D302] | < 0.01 | 
6 | [2H]C([2H])([2H])NC(=O)N1CCc2c(-c3cc(OC)c(CN4[C@H](C)CN(CCC5CCN(c6ccc7c(c6)C(=O)N(C6CCC(=O)NC6=O)C7)CC5)C[C@H]4C)c(OC)c3)cn(C)c(=O)c2C1 (stereo partly drawn) [Compound D323] |  | < 0.01
7 | CNC(=O)N1CCc2c(-c3cc(OC)c(CN4CCC(CCN5CCN(c6ccc7nc(C)n(C8CCC(=O)NC8=O)c(=O)c7c6)CC5)CC4)c(OC)c3)cn(C)c(=O)c2C1 (stereo not drawn) [Compound D65] | 0.1 to 1 | 
8 | COc1cc(-c2cn(C)c(=O)c3c2NCC3)cc(OC)c1CN1CC(CN2CCC3(CC2)CN(c2ccc4c(c2)C(=O)N(C2CCC(=O)NC2=O)C4)C3)C1 (stereo not drawn) [Compound D350] |  | < 0.01
9 | [2H]C([2H])([2H])n1cc(-c2cc(OC)c(CN3CCN(CCC4CCN(c5ccc6c(c5)C(=O)N(C5CCC(=O)NC5=O)C6)CC4)CC3)c(OC)c2)c2c(c1=O)CN(C(=O)NCC(F)F)CC2 (stereo not drawn) [Compound D316] |  | ≥ 1
10 | COc1cc(-c2cn(C)c(=O)c3c2CCN(C(=O)NC2CCC4CN(c5ccc6c(c5)C(=O)N(C5CCC(=O)NC5=O)C6=O)CC42)C3)cc(OC)c1CN(C)C (stereo not drawn) [Compound D119] | < 0.01 | 
11 | CNC(=O)N1CCc2c(-c3cc(OC)c(CN4CCC5(CC4)CCN(C(C)(C)C#Cc4ccc6c(c4)C(=O)N(C4CCC(=O)NC4=O)C6=O)C5)c(OC)c3)cn(C)c(=O)c2C1 (stereo not drawn) [Compound D137] | 0.01 to 0.1 | 
12 | CNC(=O)N1CCc2c(-c3cc(OC)c(CN4CCN(CCC5CCN(c6ccc7c(c6)C(=O)N(C6CCC(=O)NC6=O)C7=O)CC5)C5CC54)c(OC)c3)cn(C)c(=O)c2C1 (stereo not drawn) [Compound D96] | < 0.01 | 
13 | COc1cc(-c2cn(C)c(=O)c3c2COC3)cc(OC)c1CN1CCC(CN2CCC3(CC2)CN(c2ccc4c(c2)C(=O)N(C2CCC(=O)NC2=O)C4)C3)CC1 (stereo not drawn) [Compound D372] |  | < 0.01
14 | COc1cc(-c2cn(C)c(=O)c3c2CCN(C(=O)NCCN2CC4(CCN4c4ccc5c(c4)C(=O)N(C4CCC(=O)NC4=O)C5=O)C2)C3)cc(OC)c1CN(C)C (stereo not drawn) [Compound D192] | 0.1 to 1 | 
15 | CNC(=O)N1CCc2c(-c3cc(OC)c(CN4CCC5(CC4)CN(CCCN4CCN(c6ccc7c(c6)C(=O)N(C6CCC(=O)NC6=O)C7=O)CC4)CCO5)c(OC)c3)cn(C)c(=O)c2C1 (stereo not drawn) [Compound D140] | < 0.01 | 
16 | [2H]C1([2H])CC([2H])(N2C(=O)c3ccc(N4CCN(CCC5CCN(Cc6c(OC)cc(-c7cn(C)c(=O)c8c7CCN(C(=O)NC)C8)cc6OC)CC5)CC4)cc3C2=O)C(=O)NC1=O (stereo not drawn) [Compound D80] | < 0.01 | 
17 | COc1cc(-c2cn(C)c(=O)c3c2CCC3)cc(OC)c1CN1CCN(CCC2CCN(c3ccc4c(c3)C(=O)N(C3CCC(=O)NC3=O)C4)CC2)CC1 (stereo not drawn) [Compound D348] |  | < 0.01
18 | COc1cc(-c2cn(C)c(=O)c3c2CCN(C(=O)NCCCN2CC4(CCN(c5ccc6c(c5)C(=O)N(C5CCC(=O)NC5=O)C6=O)CC4)C2)C3)cc(OC)c1CN(C)C (stereo not drawn) [Compound D238] | 0.01 to 0.1 | 
19 | COc1cc(-c2cn(C)c(=O)c3c2CCN(C(=O)NC2C[C@@H]4CN(CCCCN5CCN(c6ccc7c(c6)C(=O)N(C6CCC(=O)NC6=O)C7=O)CC5)C[C@H]24)C3)cc(OC)c1CN(C)C (stereo partly drawn) [Compound D247] | 0.1 to 1 | 
20 | COc1cc(-c2cn(C)c(=O)c3c2CCN(C(=O)NC2CCC4CN(CCCCN5CCN(c6ccc7c(c6)C(=O)N(C6CCC(=O)NC6=O)C7=O)CC5)CC42)C3)cc(OC)c1CN(C)C (stereo not drawn) [Compound D221] | 0.1 to 1 | 
21 | CNC(=O)N1CCc2c(-c3cc(OC)c(CN4CCN(c5cnn(C6CCC(=O)NC6=O)c5)CC4)c(OC)c3)cn(C)c(=O)c2C1 (stereo not drawn) [Compound D60] | 0.1 to 1 | 

Row | SMILES | IC50 [1] [µM] | IC50 (SYO-1 cells, 6 hours, Table 6C) [µM]
22 | CNC(=O)N1CCc2c(-c3cc(OC)c(CN4CCC(C(C)(C)N5CCC6(CC5)CC(Oc5ccc7c(c5)C(=O)N(C5CCC(=O)NC5=O)C7=O)C6)CC4)c(OC)c3)cn(C)c(=O)c2C1 (stereo not drawn) [Compound D114] | < 0.01 | 
23 | COc1cc(-c2cn(C)c(=O)c3c2CCN(C(=O)NC2CCC4(CCN(CCCOc5ccc6c(c5)C(=O)N(C5CCC(=O)NC5=O)C6=O)C4)C2)C3)cc(OC)c1CN(C)C (stereo not drawn) [Compound D250] | 0.1 to 1 | 
24 | CNC(=O)N1CCc2c(-c3cc(OC)c(CN4CCN(CCC5CCN(c6ccc7c(c6)CN(C6CCC(=O)NC6=O)C7=O)CC5(F)F)CC4)c(OC)c3)cn(C)c(=O)c2C1 (stereo not drawn) [Compound D330] |  | < 0.01
25 | CNC(=O)N1CCc2c(-c3cc(OC)c(CN4CCC(CN5CCN(c6ccc7c(c6)C(=O)N(C6CCC(=O)NC6=O)C7=O)CC5)CC4)c(OC)c3)cn(C)c(=O)c2C1 (stereo not drawn) [Compound D256] | < 0.01 | 
26 | COc1cc(-c2cn(C)c(=O)c3c2CN(C(=O)F)CC3)cc(OC)c1CN1CC(CN2CCC3(CC2)CN(c2ccc4c(c2)C(=O)N(C2CCC(=O)NC2=O)C4)C3)C1 (stereo not drawn) [Compound D349] |  | ≥ 0.01
27 | CNC(=O)N1CCc2c(-c3cc(OC)c(CN4CCC(CCN5C(C)CN(c6ccc7c(c6)C(=O)N(C6CCC(=O)NC6=O)C7=O)CC5C)CC4)c(OC)c3)cn(C)c(=O)c2C1 (stereo not drawn) [Compound D145] | < 0.01 | 
28 | CNC(=O)N1CCc2c(-c3cc(OC)c(CN4CCC5(CCC(N6Cc7cc8c(cc7C6)C(=O)N(C6CCC(=O)NC6=O)C8=O)CC5)CC4)c(OC)c3)cn(C)c(=O)c2C1 (stereo not drawn) [Compound D181] | < 0.01 | 
29 | COc1cc(-c2cn(C)c(=O)c3c2CCN(C(=O)NCC2CC4(CCN(CCOc5ccc6c(c5)C(=O)N(C5CCC(=O)NC5=O)C6=O)CC4)C2)C3)cc(OC)c1CN(C)C (stereo not drawn) [Compound D267] | 0.01 to 0.1 | 
30 | CNC(=O)N1CCc2c(-c3cc(OC)c(CN4CC(S(=O)(=O)NCCN5CCN(c6ccc7c(c6)C(=O)N(C6CCC(=O)NC6=O)C7=O)CC5)C4)c(OC)c3)cn(C)c(=O)c2C1 (stereo not drawn) [Compound D287] | 0.1 to 1 | 
31 | CNC(=O)N1CCc2c(-c3cc(OC)c(CN4CCN(CC5CCN(c6ccc7c(c6)CN(C6CCC(=O)NC6=O)C7=O)CC5)CC4)c(OC)c3)cn(C)c(=O)c2C1 (stereo not drawn) [Compound D39] | < 0.01 | 
32 | COc1cc(-c2cn(C)c(=O)c3c2COC3)cc(OC)c1CN1CCC2(CC1)CN(c1ccc3c(c1)CN(C1CCC(=O)NC1=O)C3=O)C2 (stereo not drawn) [Compound D359] |  | < 0.01
33 | CNC(=O)N1CCc2c(-c3cc(OC)c(CN4CCC(CCCN5CCN(C6CCC(=O)NC6=O)C(=O)C5)CC4)c(OC)c3)cn(C)c(=O)c2C1 (stereo not drawn) [Compound D67] | 0.1 to 1 | 
34 | CNC(=O)N1CCc2c(-c3cc(OC)c(CN4CCC(CCN5CCN(c6ccc7c(c6F)C(=O)N(C6CCC(=O)NC6=O)C7=O)CC5)CC4)c(OC)c3)cn(C)c(=O)c2C1 (stereo not drawn) [Compound D87] | < 0.01 | 
35 | COc1cc(-c2cn(C)c(=O)c3c2CCC3)cc(OC)c1CN1CCC2(CC1)CN(c1ccc3c(c1)C(=O)N(C1CCC(=O)NC1=O)C3)C2 (stereo not drawn) [Compound D356] |  | < 0.01
36 | COc1cc(-c2cn(C)c(=O)c3c2CCC3)cc(OC)c1CN1CCN(c2ccc3c(c2)C(=O)N(C2CCC(=O)NC2=O)C3)CC1 (stereo not drawn) [Compound D364] |  | < 0.01
37 | CNC(=O)N1CCc2c(-c3cc(OC)c(CN4CCC(CN(C)C5CCN(c6ccc7c(c6)C(=O)N(C6CCC(=O)NC6=O)C7=O)CC5)CC4)c(OC)c3)cn(C)c(=O)c2C1 (stereo not drawn) [Compound D195] | < 0.01 | 
38 | CNC(=O)N1CCc2c(-c3cc(OC)c(CN4CCC(=CCN5CCN(c6ccc7c(c6)C(=O)N(C6CCC(=O)NC6=O)C7=O)CC5)CC4)c(OC)c3)cn(C)c(=O)c2C1 (stereo not drawn) [Compound D127] | < 0.01 | 
39 | COc1cc(-c2cn(C)c(=O)c3c2CCN(C(=O)NCCN2CCC4(CC2)CN(c2ccc5c(c2)C(=O)N(C2CCC(=O)NC2=O)C5=O)C4)C3)cc(OC)c1CN(C)C (stereo not drawn) [Compound D212] | 0.01 to 0.1 | 
40 | CNC(=O)N1CCc2c(-c3cc(OC)c(CN4CCC(CCN5CC6(C5)CN(c5ccc7c(c5)C(=O)N(C5CCC(=O)NC5=O)C7=O)C6)CC4)c(OC)c3)cn(C)c(=O)c2C1 (stereo not drawn) [Compound D199] | < 0.01 | 
41 | CNC(=O)N1CCc2c(-c3cc(OC)c(CN(C)CC45CC(C(=O)NCCCCCOc6ccc7c(c6)C(=O)N(C6CCC(=O)NC6=O)C7=O)(C4)C5)c(OC)c3)cn(C)c(=O)c2C1 (stereo not drawn) [Compound D286] | 0.1 to 1 | 
42 | COc1cc(-c2cn(C)c(=O)c3c2CCN(C(=O)NCC(F)F)C3)cc(OC)c1CN1CCN(CCC2CCN(c3ccc4c(c3)C(=O)N(C3CCC(=O)NC3=O)C4=O)CC2)CC1 (stereo not drawn) [Compound D46] | < 0.01 | 
